From patent US7312239B2, “Medicament for prevention and/or therapy of arterial wall disorder” (Mitsubishi Pharma Corporation, priority 2002, dated 2007) come the findings set out here.

Experiment [1] can be described thus: Total cholesterol, triglyceride and lipid peroxide in serum of balloon-injured cholesterol-fed rabbits. Type of experiment: in vivo, Japanese white rabbits. The settings on record: 10 mg/kg i.v. twice per day, before cholesterol food, at balloon injury, at sacrifice, vs control group. The method, then: (§1) Japanese white rabbits were divided into two groups, an edaravone group (n=6) and a control group (n=6), and they were fed with 1% cholesterol food for 10 weeks. On the 8th week, the rabbits of both groups were injured such that their abdominal aorta was damaged by use of a balloon. For the edaravone group, edaravone was administered every day (10 mg/kg, intravenous injection twice per day) from the day before the balloon injury. For the control group, a physiological salt solution was administered. On the 10th week, the rabbits were sacrificed, and their abdominal aorta was excised. The ratio of a new intima to a new media (the ratio of the intimal area of a blood vessel section to the medial area thereof; I/M) was measured as follows. First, total 5 portions were cut out of the abdominal aorta into round slices each having a width of 5 mm, and HE-stained samples were prepared therefrom. A new intimal area and a new medial area were analyzed with computer software, and the mean value of the 5 portions was obtained, followed by calculation of I/M.
Moreover, total cholesterol (TC), triglyceride (TG) and lipid peroxide (LPO) in serum were measured, before the rabbits were fed with cholesterol food, when they were injured by use of a balloon, and when they were sacrificed.

Experiment [2] has as its system abdominal aorta of rabbits injured by use of a balloon. Nature of the experiment: Balloon injury of abdominal aorta in cholesterol-fed rabbits, ratio of new intima to new media (I/M). It is filed as in vivo, Japanese white rabbits. The settings on record: rabbits on 1% cholesterol food, 10 mg/kg intravenous injection twice per day from the day before injury, 10th week, p=0.018 vs control 0.475±0.136. The method, then:
as §1

Experiment [3] relates to right common carotid artery injured by abrasion with a 2F balloon. In words: Balloon injury of right common carotid artery in ovary-eliminated rats, I/M. It is filed as in vivo. The settings on record: ovary elimination (OVX) female SD rats, 30 mg/kg/day oral for 3 days after operation, 14th day; p<0.01 vs OVX+V 1.36±0.12. The method, then: (§2) 11′-week-old female SD rats were divided into two groups, an ovary elimination group (OVX) and an ovary non-elimination group (INT). To the OVX group, edaravone (Ed) (30 mg/kg/day) (n=8) or vehicle (V) (n=7) was orally administered, and to the INT group (n=4), vehicle (V) was administered. The vascular endothelium of the right common carotid artery was injured by abrasion with a 2F balloon. The above drugs were administered for 3 days immediately after the above operation. On the 14th day, the blood vessel was excised, and the ratio of a new intima to a new media (I/M) was calculated.

For experiment [4] the test system is unchanged. In words: Balloon injury of carotid artery in OLETF rats with type II diabetes, I/M. It is filed as in vivo. The settings on record: male OLETF rats with type II diabetes, administered from 3 days before to 14th day after operation; p<0.01 vs vehicle 1.12±0.15. Here is the method:
as §2, with “calculated. 30-week-old male OLETF rats with type II diabetes were divided into two groups, an edaravone (Ed) administration group (n=4) and a vehicle (V) administration group (n=4). The above-described blood vessel injury was carried out on them. The above drugs were continuously administered from 3 days before the above operation to the 14th day after the above operation. Thereafter, the ratio of a new intima to a new media (I/M) was calculated.” for “calculated.”

As to `CC1=NN(c2ccccc2)C(=O)C1` [edaravone, 3-methyl-1-phenyl-2-pyrazolin-5-one], in experiment [1], the “lipid peroxide (LPO) in serum” value was “not significantly different”, the “total cholesterol (TC) in serum” value is listed as “not significantly different” and the “triglyceride (TG) in serum” value is “not significantly different”. Further, the “ratio of a new intima to a new media (I/M)” value (“ratio of a new intima” for short) in experiment [2] came to 0.344±0.055. The “ratio of a new intima” value in experiment [3] amounted to 0.82±0.09. Besides, the “ratio of a new intima” value in experiment [4] is recorded as 0.55±0.02.
